This note sets out measurements from PMC6220849, “Mechanistic and structural studies of KDM‐catalysed demethylation of histone 1 isotype 4 at lysine 26” (Febs Letters, 2018).

For one test, the system named is KDM2A (KDM2A1–557). Description: MALDI-TOF MS demethylation activity assay, KDM2A. The test is classed as biochemical, human. More on the design: key: 🟢: Indicates that clear demethylation activity was observed; 🟡: Indicates that low level demethylation activity was observed (<10% conversion after 1 h); 🔴: Indicates no activity under the stated conditions (1 μM KDM, 10 μM peptide); 🟡*: *Indicates demethylation activity was only observed with 5 μM KDM. The following applies: peptide as substrate, 1 μM KDM, 10 μM peptide, 50 mM HEPES pH 7.5, Fe(II) 10 μM, ascorbate 100 μM, 2OG 200 μM, 1 h at 37 °C. The protocol:
(§1) Recombinant proteins (1 μM) were incubated with peptides (10 μM, sequences are given in Table S1) in 50 mM HEPES, pH 7.5 with addition of Fe(II) ammonium sulfate (10 μM), sodium ascorbate (100 μM) and 2‐oxoglutaric acid (200 μM). Reactions with KDM3A and KDM7A also contained 1 mM tris(2‐carboxyethyl)phosphine hydrochloride. No enzyme reactions were included as negative controls. Reactions were incubated for 1 h at 37 °C before being quenched with 1 : 1 (v/v) methanol. Analysis was carried out by MALDI‐TOF MS (Bruker, Billerica, MA, USA), with demethylation observed as mass shifts of 14 Da.
(§2) The propensity of human JmjC KDMs to catalyse demethylation at H1.4K26 was investigated using recombinant forms of the catalytic domains of representatives of each human JmjC KDM subfamily (KDM2‐7) and fragment peptides (Table S1) 37. Three peptides with identical sequences, corresponding to residues 18–32 of histone H1.4 (H2N‐[…]‐CONH2), but containing either a N ^ε‐tri‐, di‐ or monomethyllysine at K26 were synthesised (Fig. 1B and Table S1). Activity assays monitoring JmjC KDM‐catalysed demethylation of the peptides were then carried out; samples were prepared containing each peptide, 2‐oxoglutarate (2OG), ferrous iron, ascorbate and individual representatives from each JmjC KDM subfamily (KDM2A 38, KDM3A 21, KDM4E 22, KDM5C 39, 40, KDM6B 41, KDM7A 42).

A further test relates to KDM5C (KDM5C1–765). Description: MALDI-TOF MS demethylation activity assay, KDM5C. More on the design: key: 🟢: Indicates that clear demethylation activity was observed; 🟡: Indicates that low level demethylation activity was observed (<10% conversion after 1 h); 🔴: Indicates no activity under the stated conditions (1 μM KDM, 10 μM peptide); 🟡*: *Indicates demethylation activity was only observed with 5 μM KDM. The test is classed as biochemical, human. The following applies: peptide as substrate, 1 μM KDM, 10 μM peptide, 50 mM HEPES pH 7.5, Fe(II) 10 μM, ascorbate 100 μM, 2OG 200 μM, 1 h at 37 °C. The method, then:
as §1, §2

In the next test the test system is KDM4C (KDM4C1–359). The experiment in a line: MALDI-TOF MS demethylation activity assay, KDM4C. Format: biochemical, human. More on the design: key: 🟢: Indicates that clear demethylation activity was observed; 🟡: Indicates that low level demethylation activity was observed (<10% conversion after 1 h); 🔴: Indicates no activity under the stated conditions (1 μM KDM, 10 μM peptide); 🟡*: *Indicates demethylation activity was only observed with 5 μM KDM. The conditions noted are these: peptide as substrate, 1 μM KDM, 10 μM peptide, 50 mM HEPES pH 7.5, Fe(II) 10 μM, ascorbate 100 μM, 2OG 200 μM, 1 h at 37 °C. The protocol: as §1
(§3) Given the activity observed with KDM4E and KDM7A, we decided to investigate the intra‐subfamily conservation of this demethylation activity. The demethylation activity of the other subfamily members (KDM4A‐D and KDM7B) was therefore screened. […] Note that as with H3K9, demethylation of the monomethylated H1.4K26 peptide was only observed with KDM4E, under the stated conditions 24.

A further test has as its system KDM7B (PHF8; KDM7B1–447). The experiment in a line: MALDI-TOF MS demethylation activity assay, KDM7B (PHF8). The test is classed as biochemical, human. More on the design: key to demethylation activity on methylated H1.4 peptide: 🟢: Indicates that clear demethylation activity was observed; 🟡: Indicates that low level demethylation activity was observed (<10% conversion after 1 h); 🔴: Indicates no activity under the stated conditions (1 μM KDM, 10 μM peptide); 🟡*: *Indicates demethylation activity was only observed with 5 μM KDM. The following applies: peptide as substrate; MALDI-TOF MS; 1 μM KDM (* = only with 5 μM KDM), 10 μM peptide, 50 mM HEPES pH 7.5, Fe(II) 10 μM, ascorbate 100 μM, 2OG 200 μM, 1 h at 37 °C. The protocol: as §1, §3
(§4) N ^ε‐Trimethylated H3K4 binds to the plant homeobox domain of KDM7B, targeting the N ^ε‐dimethyllysine at H3K9 to the catalytic domain, and thus promoting demethylation 29, 44. To test whether similar targeting may occur with H1.4, promoting activity at H1.4K26, an H1.4 peptide was synthesised containing di‐N ^ε‐methyllysine at K26 and tri‐N ^ε‐methyllysine at K21 (i.e. at the equivalent position in the sequence to K4 in the H3 peptide, Fig. 1B, Table S1). Monomethylation at H1.4K21 has previously been observed by proteomic mass spectrometry 45. With the aim of enhancing activity, the enzyme concentration was increased from 1 μM to 5 μM, and time course analyses were conducted with both KDM7A and KDM7B, both with the new peptide (H1.4(18–32)K21me3K26me2) and the H1.4 peptides methylated only at K26 (Fig. 2B). […] Thus, it appears unlikely that N ^ε‐trimethylation at H1.4K21 promotes demethylation at H1.4K26 by KDM7B.

A further test has as its system KDM4D (KDM4D1–359). Description: MALDI-TOF MS demethylation activity assay, KDM4D. The following applies: peptide as substrate, 1 μM KDM, 10 μM peptide, 50 mM HEPES pH 7.5, Fe(II) 10 μM, ascorbate 100 μM, 2OG 200 μM, 1 h at 37 °C. Format: biochemical, human. More on the design: key: 🟢: Indicates that clear demethylation activity was observed; 🟡: Indicates that low level demethylation activity was observed (<10% conversion after 1 h); 🔴: Indicates no activity under the stated conditions (1 μM KDM, 10 μM peptide); 🟡*: *Indicates demethylation activity was only observed with 5 μM KDM. The method, then: as §1, §3

The test system of another test is KDM7A (KDM7A38–480). Description: MALDI-TOF MS demethylation activity assay, KDM7A. The test is classed as biochemical, human. The following applies: peptide as substrate; MALDI-TOF MS; 1 μM KDM, 10 μM peptide, 50 mM HEPES pH 7.5, Fe(II) 10 μM, ascorbate 100 μM, 2OG 200 μM, 1 mM TCEP, 1 h at 37 °C. The method, then: as §1, §2, §4
In a further test the test system is KDM6B (KDM6B1141–1590). Description: MALDI-TOF MS demethylation activity assay, KDM6B. Format: biochemical, human. On the set-up: key: 🟢: Indicates that clear demethylation activity was observed; 🟡: Indicates that low level demethylation activity was observed (<10% conversion after 1 h); 🔴: Indicates no activity under the stated conditions (1 μM KDM, 10 μM peptide); 🟡*: *Indicates demethylation activity was only observed with 5 μM KDM. The conditions noted are these: peptide as substrate, 1 μM KDM, 10 μM peptide, 50 mM HEPES pH 7.5, Fe(II) 10 μM, ascorbate 100 μM, 2OG 200 μM, 1 h at 37 °C. The protocol:
as §1, §2

For the next test, the system named is KDM4A (KDM4A1–359). The experiment in a line: MALDI-TOF MS demethylation activity assay, KDM4A. The conditions noted are these: peptide as substrate, 1 μM KDM, 10 μM peptide, 50 mM HEPES pH 7.5, Fe(II) 10 μM, ascorbate 100 μM, 2OG 200 μM, 1 h at 37 °C. On the set-up: key: 🟢: Indicates that clear demethylation activity was observed; 🟡: Indicates that low level demethylation activity was observed (<10% conversion after 1 h); 🔴: Indicates no activity under the stated conditions (1 μM KDM, 10 μM peptide); 🟡*: *Indicates demethylation activity was only observed with 5 μM KDM. The test is classed as biochemical, human. The protocol:
as §1, §3

Another test relates to KDM3A (KDM3A515–1317). The experiment in a line: MALDI-TOF MS demethylation activity assay, KDM3A. Format: biochemical, human. More on the design: key: 🟢: Indicates that clear demethylation activity was observed; 🟡: Indicates that low level demethylation activity was observed (<10% conversion after 1 h); 🔴: Indicates no activity under the stated conditions (1 μM KDM, 10 μM peptide); 🟡*: *Indicates demethylation activity was only observed with 5 μM KDM. The following applies: peptide as substrate, 1 μM KDM, 10 μM peptide, 50 mM HEPES pH 7.5, Fe(II) 10 μM, ascorbate 100 μM, 2OG 200 μM, 1 mM TCEP, 1 h at 37 °C. The method, then:
as §1, §2

A further test deals with KDM4B (KDM4B1–359). Description: MALDI-TOF MS demethylation activity assay, KDM4B. The test is classed as biochemical, human. More on the design: key: 🟢: Indicates that clear demethylation activity was observed; 🟡: Indicates that low level demethylation activity was observed (<10% conversion after 1 h); 🔴: Indicates no activity under the stated conditions (1 μM KDM, 10 μM peptide); 🟡*: *Indicates demethylation activity was only observed with 5 μM KDM. The following applies: peptide as substrate, 1 μM KDM, 10 μM peptide, 50 mM HEPES pH 7.5, Fe(II) 10 μM, ascorbate 100 μM, 2OG 200 μM, 1 h at 37 °C. The protocol: as §1, §3

In test [1] the target is T1, KDM4A(1-359), catalytic domain of human histone lysine demethylase KDM4A (human, UniProt O75164 1-359).
T1 construct: KDM4A, human, catalytic domain, residues 1-359; In the crystal the active site holds Ni(II) (in place of Fe(II)) and N-oxalylglycine (NOG)
T1 sequence (looked up): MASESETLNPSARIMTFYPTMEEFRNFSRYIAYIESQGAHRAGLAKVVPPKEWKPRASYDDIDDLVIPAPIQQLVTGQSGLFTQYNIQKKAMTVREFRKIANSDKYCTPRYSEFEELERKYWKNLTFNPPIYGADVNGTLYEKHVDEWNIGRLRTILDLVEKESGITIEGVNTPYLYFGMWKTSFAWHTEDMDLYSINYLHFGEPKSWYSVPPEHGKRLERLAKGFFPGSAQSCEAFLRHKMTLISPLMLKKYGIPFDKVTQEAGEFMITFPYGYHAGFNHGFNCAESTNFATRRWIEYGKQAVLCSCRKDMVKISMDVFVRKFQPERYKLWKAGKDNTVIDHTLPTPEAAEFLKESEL
The experiment in a line: crystal structure; co-crystals of KDM4A(1-359).Ni(II).H1.4(18-32)K26me3.NOG; sitting drops at 4 °C, 0.1 M MIB buffer pH 6.0, 25% w/v PEG 1500; 10 mg/mL KDM4A, 5 mM peptide, 5 mM NOG, 4 mM NiCl2. The following applies: both partners purified.

Square brackets hold non-standard residues; d marks the D form. Ends that are not written are not given here. Me3 = N-epsilon-trimethyl on lysine; Lys(Me) = CNCCCC[C@H](N)C(=O)O

As to “TPVKKKAR[Lys(Me)]SAGAAK [H1.4(18–32)K26me1, peptide of residues 18–32 of histone H1.4 with N ε-monomethyllysine at K26]”, the “demethylation activity on methylated H1.4 peptide” value was “🔴” in the test with KDM2A (KDM2A1–557); “🔴” with KDM5C (KDM5C1–765); “🔴” in the test with KDM4C (KDM4C1–359); “🟡*” with KDM7B (PHF8; KDM7B1–447); “🔴” in the test with KDM4D (KDM4D1–359); “🟡 (Indicates that low level demethylation activity was observed (<10% conversion after 1 h))” in the test on KDM7A (KDM7A38–480). Besides, the “demethylation activity on methylated H1.4 peptide” value in the test on KDM6B (KDM6B1141–1590), in the test with KDM4A (KDM4A1–359), in the test with KDM3A (KDM3A515–1317) and in the test on KDM4B (KDM4B1–359) was “🔴” in each case.

B1: H1.4(18–32)K26me3 peptide (histone 1 isotype 4, residues 18-32, N-epsilon-trimethyllysine at K26) (peptide)
peptide: TPVKKKARK(Me3)SAGAAK-NH2
notes: histone H1.4 (histone 1 isotype 4), residues 18-32; only residues 24-29 are seen in the crystal structure; also called H1.4K26me3; H1.4K26me3 peptide; source: synthetic peptide
As for B1, the binding result in test [1] was “binds”.
